Reference: patent US20260048155A1, “BIOCOMPATIBLE PARAHYDROGEN HYPERPOLARIZED SOLUTIONS BY PRECIPITATION AND RE-DISSOLUTION” (North Carolina State University, priority 2022, published 2026)

What was measured:
[1] = SABRE polarization build-up and T1 relaxation dynamics in SABRE solvents; assay type: physicochemical; details: for 13C T1 decay / polarization build-up Tb: 0.4 μT
Method: CD3OD is widely used as the SABRE-reaction-hosting solvent because it provides convenient means of attaining high-field NMR spectrometer lock. However, non-deuterated polarization media may be preferred for biomedical applications. For this reason, systematic relaxation dynamics studies were performed comparing CD3OD, CH3OH, and C2H5OH for SABRE-SHEATH [1-^13C]pyruvate hyperpolarization, investigating relevant parameters for these solvents and for fixed concentrations of pyruvate, SABRE catalyst, and DMSO (30 mM, 6 mM, and 40 mM, respectively). However, the ethanol sample was prepared with only 6 mM pyruvate and 10% H2O due to limited solubility. The optimal Br was similar in all investigated samples (≈0.4 μT, FIG. 4A). […] (FIG. 4B). Thus, all the experiments described below were performed using these optimized Br and Tr parameters.
The polarization build-up (Tb) and decay (T1) at 0.4 μT were similar: Tb=13.7±0.6 s versus 19.3±0.6 s; and T1=26.0±0.4 s versus 29.1±0.8 s, respectively (FIGS. 4C, 4E). P13C values were also similar; in one representative example of polarization build-up, P13C was 7.8±0.1% vs. 8.5±0.1% for CH3OH and CD3OD media, respectively, FIG. 4D. […] For ethanol, 1.4-fold lower P13C values were obtained in this mixture compared to CH3OH and CD3OD, which is rationalized by a more efficient relaxation at the SABRE-SHEATH field, FIG. 4E.
Data fitting and error propagation for relaxation and polarization build-up data presented in FIGS. 4A-4I: Data in FIGS. 4C, 4F, 4H was fitted using mono-exponential functions (solid lines) and extracted values with error of polarization build-up or relaxation are presented in bar plots (FIGS. 4D, 4E, 4G, 4I).

[2] = Precipitation and syringe/cotton filtering of HP pyruvate at 10 mT; assay type: physicochemical; details: 4.5 mL EtAc, filter at 10 mT, 1 mL H2O, 90-100 s procedure, repeated three times
Method: As described above, filtering of non-hyperpolarized pyruvate from the precipitated solutions was tested using in-line syringe filters (FIGS. 9A-9C), and the obtained solutions of supernatant and dissolved microcrystals were analyzed with high resolution NMR. Cotton filters were also used as a performance metric for the syringe filters. Each sample was SABRE-SHEATH-polarized as described previously for three times to quantify the mean base-line hyperpolarization before precipitation (for this batch of samples, P13C=10±1% in CH3OH). Because a short lifetime of ^13C magnetization was expected at ultralow field, the precipitation procedure was performed at an elevated field of 10 mT (see setup described in section 5). At this field, proton and ^13C Zeeman levels are separated by >350 kHz, i.e., an order of magnitude greater than the dipolar spin-spin couplings present in the solid state. To this end, after the hyperpolarization procedure was completed, the sample was rapidly removed from the 0.30 μT field, depressurized, and filled into a 10-mL plastic syringe held at a 10 mT field mounted to a Luer-locked filter. After depressurization (˜10-15 s after hyperpolarization) 4.5 mL EtAc was added, the solution was stirred manually, and the filtration was started, taking a total of about 1 min following hyperpolarization. […]

[3] = 30 mM pyruvate, prior SABRE-SHEATH work (background); cited from earlier work

CC(=O)[13C](=O)O [[1-^13C]pyruvate]
13C T1 decay ([1]; 30 mM in CD3OD): 26.0 ± 0.4 s
polarization build-up Tb ([1]; 30 mM in CD3OD): 13.7 ± 0.6 s
13C T1 relaxation time ([1]; 30 mM in CD3OD, 1.4 T): 86 ± 2 s
13C T1 decay ([1]; 30 mM in CH3OH): 29.1 ± 0.8 s
polarization build-up Tb ([1]; 30 mM in CH3OH): 19.3 ± 0.6 s
13C T1 relaxation time ([1]; 30 mM in CH3OH, 1.4 T): 59.3 ± 0.8 s
T1 relaxation time ([1]; 60 mM in CH3OH, 1.4 T): 59.3 ± 0.5 s
T1 relaxation time ([1]; 60 mM in CH3OH, 300 nT): 34.6 ± 1.1 s
polarization build-up time constant Tb ([1]; 60 mM in CH3OH, 300 nT): 22.0 ± 0.7 s
1-13C T1 ([1]; dissolved in CH3OH:catalyst mixture, Earth's field): 46.5 ± 0.9 s
HP 13C signal after precipitation and filtering [2]: no HP ^13C signal was observed
P13C in the free state [3]: 13%
